Tests used:
[1] = target: T1, IDO1 (Homo sapiens, UniProt P14902); assay: hIDO1 inhibitory potency evaluation (fluorescence assay, NFK-derived fluorophore); assay type: biochemical; parameters: gene encoding human IDO1 residues 6-403 His-tagged at the N-terminus; His tag (N); made in house; host or cells: Escherichia coli NiCo21
Target sequence in this assay (P14902 6-403): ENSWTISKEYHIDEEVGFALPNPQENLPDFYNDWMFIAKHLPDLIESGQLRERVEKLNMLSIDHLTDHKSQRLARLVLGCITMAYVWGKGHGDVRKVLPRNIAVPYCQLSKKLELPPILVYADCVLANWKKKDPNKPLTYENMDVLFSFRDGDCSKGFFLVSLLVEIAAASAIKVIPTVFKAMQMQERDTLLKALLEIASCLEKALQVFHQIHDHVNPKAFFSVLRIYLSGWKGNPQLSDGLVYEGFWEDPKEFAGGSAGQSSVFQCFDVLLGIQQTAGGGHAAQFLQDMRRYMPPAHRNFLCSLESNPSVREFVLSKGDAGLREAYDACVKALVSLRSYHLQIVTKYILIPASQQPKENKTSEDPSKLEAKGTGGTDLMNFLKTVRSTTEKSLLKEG

[2] = target: T1, IDO1; assay: Cell-based IDO1 inhibitory assay on IFN-γ treated HeLa cells; parameters: endogenous in cells; host or cells: HeLa cells treated with human IFN-γ
Protocol: All active compounds were additionally evaluated on a cellular level, starting with the determination of cytotoxicity on Hep G2 cell line using the MTS assay (Figure 3), where inner salt of [3-(4,5-dimethylthiazol-2-yl)-5-(3-carboxymethoxyphenyl)-2-(4-sulfophenyl)-2H-tetrazolium is converted to formazan product, its quantity is directly proportional to the number of living cells. Since the majority of compounds were only partially soluble in a cell medium at concentrations above 100 μM, their effect on cell viability was measured at 50 μM, 10 μM, and 1 μM. […] Taken together, the results obtained from cellular tests reminded us of the necessity to consider the physicochemical properties of compounds even at the early stages of design.
HeLa cells were seeded in 96-well plates (2 × 10^4 cells/well) and maintained in Dulbecco’s modified Eagle’s medium, supplemented with 10% fetal bovine serum (both from Thermo Fisher Scientific, Waltham, MA, USA) and 100 µg/mL gentamicin (Sigma-Aldrich, St. Louis, MO, USA). Following overnight incubation in a humidified chamber at 37 °C and 5% CO2 cells were treated with human IFN-γ (50 ng/mL final concentration). […] The absorbance (λABS = 480 nm) of the yellow color derivate formed after 10 min was measured using a microplate reader (Synergy H4; BioTek Instruments, Inc., Winooski, VT, USA).
Target sequence in this assay (P14902 whole entry, the tested form may be a part): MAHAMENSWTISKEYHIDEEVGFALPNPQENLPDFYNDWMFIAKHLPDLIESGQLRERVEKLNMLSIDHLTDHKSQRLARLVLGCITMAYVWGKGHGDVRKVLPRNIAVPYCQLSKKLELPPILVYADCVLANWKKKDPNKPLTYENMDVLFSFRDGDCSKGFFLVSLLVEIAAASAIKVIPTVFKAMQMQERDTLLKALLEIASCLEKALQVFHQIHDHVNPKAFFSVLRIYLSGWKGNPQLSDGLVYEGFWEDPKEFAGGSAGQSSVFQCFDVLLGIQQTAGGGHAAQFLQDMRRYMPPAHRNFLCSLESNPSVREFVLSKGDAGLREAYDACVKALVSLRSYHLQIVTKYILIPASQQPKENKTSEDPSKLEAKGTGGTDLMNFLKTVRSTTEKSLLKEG

[3] = target: T2, hTDO (Homo sapiens, UniProt P48775); assay: hTDO inhibitory potency evaluation (fluorescence assay); assay type: biochemical
T2 construct: purchased Vinci-Biochem
Protocol: Additionally, to determine IDO1 selectivity, all final compounds were assayed for their inhibitory potencies towards hIDO2 and hTDO. For this purpose, two new protocols were developed based on the published fluorescence assay for hIDO1 [25]. Sodium ascorbate, methylene blue, and bovine catalase were used in the same concentrations as for hIDO1. 50 mM phosphate buffers with pH values of 7.5 and 7.0 were used for hIDO2 and hTDO, respectively, as has been already mentioned before. First, the activities of hIDO2 and hTDO were determined at four different concentrations. […] Additionally, the effect of DMSO concentration on enzyme activity was investigated. […] The optimal hIDO2 and hTDO assay concentrations of the substrate L-Trp were determined to be 4 mM and 500 μM, respectively.
The activity of the compounds on hTDO was determined according to the previously reported fluorescence protocol for hIDO1 [25] and reported absorbance protocols for hTDO [30] with several modifications. Recombinant hTDO was purchased from Vinci-Biochem (Vinci-Biochem, Vinci, Italy), bovine catalase was purchased from Sigma-Aldrich (Sigma-Aldrich, St. Louis, MO, USA). Prior to the measurement of activity for compounds, the enzyme activity was determined, and optimal assay enzyme concentration was selected. The amounts of reagents needed to perform the assay were optimized. Briefly, the reagents needed were dissolved in 50 mM potassium phosphate buffer (pH 7.0, 0.01%, v/v Tween 20), the reaction was performed in black 384-well microplates. After the addition of 1 μL of 100 mM sodium ascorbate neutralized with equimolar amount of 1 M NaOH, 1 μL of 100 μM methylene blue, 1 μL of 1 mg/mL bovine catalase, 0.5 μL of DMSO (negative control) or solution of a compound, 5 μL of 300 nM hTDO and 1.5 μL of 3.3 mM L-Trp were added and the microplate was incubated for 60 min at 37 °C. The reaction was quenched with the addition of 10 μL of 400 mM piperidine solution in MilliQ water and the formation of the examined fluorophore began following incubation at 65 °C for 20 min. The production of NFK-derived fluorophore (λEX = 400 nm, λEM = 500 nm) was measured using a microplate reader (Synergy H4; BioTek Instruments, Inc., Winooski, VT, USA) after 60 min post-incubation at room temperature. In the preliminary testing compounds were tested at 100 μM with activities determined as residual activities—RA, which were calculated to% of inhibition, presented in Table 1 and Table 2 (% of inhibition = 100% − RA). All determinations were carried out in duplicates.

T2 sequence (P48775 whole entry): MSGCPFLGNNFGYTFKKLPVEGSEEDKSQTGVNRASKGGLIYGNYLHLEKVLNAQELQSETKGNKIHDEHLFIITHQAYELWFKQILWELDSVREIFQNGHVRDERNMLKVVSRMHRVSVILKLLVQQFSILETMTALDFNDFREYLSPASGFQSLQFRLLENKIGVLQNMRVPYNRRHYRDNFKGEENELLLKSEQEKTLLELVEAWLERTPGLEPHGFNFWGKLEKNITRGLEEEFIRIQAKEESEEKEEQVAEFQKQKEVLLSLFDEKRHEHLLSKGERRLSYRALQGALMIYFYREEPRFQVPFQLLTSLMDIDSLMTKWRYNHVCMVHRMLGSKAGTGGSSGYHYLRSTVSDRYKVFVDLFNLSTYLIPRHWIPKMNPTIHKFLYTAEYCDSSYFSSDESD

With `O=C(Cn1cnc2onc(-c3ccc(F)cc3)c2c1=O)Nc1ccc(C(F)(F)F)cc1` [Compound 23] the “hIDO1 inhibition (in words)” value [1] was “low micromolar range”, the IC50 ([1]; recombinant hIDO1, mean ± SD of at least two independent determinations, read-out: IDO1 IC50) was 23 µM and the “cell-based IDO1 inhibition” value [2] was “no activity was detected”. The “hTDO inhibition (in words)” value [3] was “no activity” and the melting point was 225 to 227 °C.
